Measured values published in US4364944A, “Cephalosporins” (Dr. Karl Thomae Gesellschaft mit beschrankter Haftung, priority 1980, dated 1982).
≈ marks a conversion by molar mass, not a printed value.

Tests used:
E. coli ATCC 11775 [1] = test: Minimum inhibiting concentration, serial dilution test in the microtiter system; format: cell-based; conditions: Escherichia coli, ATCC11775, 37° C., 18 to 20 hours
Method: (§1) These tests were performed using the serial dilution test in the microtiter system. The effect of the test compound on bacteriostasis was tested in a liquid medium at the following concentrations: 128, 64, 32, 16, 8, 4, 2, 1, 0.5, 0.25, 0.12 and 0.06 μgm/ml. The nutrient medium consisted of 10 gm of peptone, 8 gm of meat extract oxoid, 3 gm of sodium chloride, and 2 gm of sec. sodium phosphate diluted with distilled water to […] (pH 7.2-7.4). The age of the primary cultures was approximately 20 hours. The standardization of the bacteria suspension was effected using a photometer according to the method of Eppendorf (test tube .phi. 14 mm, filter 546 nm), using for comparison a barium sulfate suspension formed by the addition of 3.0 ml of 1% barium chloride solution to 97 ml of 1% sulfuric acid. After standardization, the test microorganisms were further diluted to a concentration of 1:1500, using a sodium chloride solution.
(§2) 16 mgm of the particular test compound were put into a 10 ml measuring flask, and the flask was subsequently filled to the mark with the solvent. The further dilution series was standardized with distilled water or the appropriate solvent.
(§3) The depressions of the microtiter plates were filled with 0.2 ml of nutrient medium. 0.01 ml of the appropriate test compound solution was then added, followed by inoculation with 0.1 ml (1 drop) of the standardized bacteria suspension. The bacteria were incubated at 37° C. for 18 to 20 hours. Control tests using only the solvent were carried out simultaneously.
(§4) The readings were made macroscopically to determine the minimum inhibitory concentration (the lowest still bacteriostatically effective concentration).
(§5) Staphylococcus aureus SG 511, Escherichia coli ATCC 11 775, Pseudomonas aeruginosa hamburgensis and Pseudomonas aeruginosa BC 19, Serratia marcescens ATCC 13 800, Klebsiella pneumoniae ATCC 10031 and BC 6, Proteus mirabilis BC 17, Proteus rettgeri BC 7, Enterobacter Cloaceae ATCC 13047 and E. coli R+TEM (β-lactamase carrier).

E. coli R + TEM = test: as above; format: cell-based; conditions: Escherichia coli, read-out: Minimum inhibiting concentration (MIC)
Method: as §1, §2, §3, §4, §5

Kl. pneum. ATCC 10031 = test: as above; format: cell-based; conditions: Klebsiella pneumoniae, ATCC10031, 37° C., 18 to 20 hours
Method: as §1, §2, §3, §4, §5

Kl. pneum. BC 6 = test: as above; format: cell-based; conditions: Klebsiella pneumoniae, 37° C., 18 to 20 hours
Method: as §1, §2, §3, §4, §5

Prot. mirab. BC 17 = test: as above; format: cell-based; conditions: Proteus mirabilis, 37° C., 18 to 20 hours
Method: as §1, §2, §3, §4, §5

Pseud. BC 19 = test: as above; format: cell-based; conditions: Pseudomonas aeruginosa, 37° C., 18 to 20 hours
Method: as §1, §2, §3, §4, §5

[2] = system: Serr. marcesc. ATCC 13880; test: as above; format: cell-based; conditions: Serratia marcescens, ATCC13880, 37° C., 18 to 20 hours
Method: as §1, §2, §3, §4, §5

Staph. aureus SG 511 = test: as above; format: cell-based; conditions: Staphylococcus aureus, SG511, 37° C., 18 to 20 hours
Method: as §1, §2, §3, §4, §5

Pseud. Hbg. = test: as above; format: cell-based, Pseudomonas aeruginosa hamburgensis; conditions: Pseudomonas aeruginosa, 37° C., 18 to 20 hours
Method: as §1, §2, §3, §4, §5

Prot. rettg. = test: as above; format: cell-based, Proteus rettgeri; conditions: Providencia rettgeri, 37° C., 18 to 20 hours
Method: as §1, §2, §3, §4, §5

Ent. cloac. ATCC 13047 = test: as above; format: cell-based, Enterobacter Cloaceae; conditions: Enterobacter, ATCC13047, 37° C., 18 to 20 hours
Method: as §1, §2, §3, §4, §5

K. pneum. 1082 E = test: as above; format: cell-based; conditions: Klebsiella pneumoniae, 37° C., 18 to 20 hours
Method: as §1, §2, §3, §4

E. coli ATCC 11775 [3] = test: In vivo activity against experimental E. coli infection in mice; parameters: species or system E. coli in female mice of the NMRI strain; conditions: Escherichia coli, ATCC11775, sc, 168 h; s.c. administration once, 1 hour after i.p. infection; dose at which 50% of the animals survive; 7 days
Method: A few compounds of the invention and cefuroxim were tested in vivo against experimental infections in mice. E. coli ATCC 11775 was used as the pathogenic bacteria. An intraperitoneal infection was induced with 0.2 ml of a 5% mucin suspension of the bacteria. This corresponds to approximately 1.4×10^6 E. coli bacteria per mouse. Female mice of the NMRI strain were divided into groups of 10 animals, of which 2 groups remained untreated while the remaining groups were treated with various doses of the particular cephalosporin according to the invention for the purpose of determining the ED50 (dose at which 50% of the animals survive). The treatment was applied once (1 hour after infection). The observation period was 7 days. The results of these tests are shown in Table III below, where the numbering of the compounds again corresponds to that used in Table I.

Row | Structure (SMILES) | MIC (E. coli ATCC 11775 [1]) | MIC (E. coli R + TEM) | MIC (Kl. pneum. ATCC 10031) | MIC (Kl. pneum. BC 6) | MIC (Prot. mirab. BC 17) | MIC (Pseud. BC 19) | MIC [2] | MIC (Staph. aureus SG 511) | MIC (Pseud. Hbg.) | MIC (Prot. rettg.) | MIC (Ent. cloac. ATCC 13047) | MIC (K. pneum. 1082 E) | ED50 (E. coli ATCC 11775 [3])
1 | Nc1nc(C(NC(=O)Nc2cnc(NCc3ccc(S(N)(=O)=O)s3)nc2O)C(=O)N[C@@H]2C(=O)N3C(C(=O)O)=C(CSc4nnnn4CCO)CS[C@H]23)cs1 (some centres unmarked) [Compound 6] | < 0.03 µg/mL | 0.5 µg/mL (≈ 0.595 µM) | 0.06 µg/mL (≈ 0.0713 µM) | 0.03 µg/mL (≈ 0.0357 µM) | 0.03 µg/mL (≈ 0.0357 µM) | 8 µg/mL (≈ 9.51 µM) | 0.06 µg/mL (≈ 0.0713 µM) | 1 µg/mL (≈ 1.19 µM) | 16 µg/mL (≈ 19 µM) | 0.06 µg/mL (≈ 0.0713 µM) | 0.06 µg/mL (≈ 0.0713 µM) | 16 µg/mL (≈ 19 µM) | < 0.5 mg/kg
2 | Cn1nnnc1SCC1=C(C(=O)O)N2C(=O)[C@@H](NC(=O)C(NC(=O)Nc3cnc(NCc4ccco4)nc3O)c3csc(N)n3)[C@H]2SC1 (some centres unmarked) [Compound 1] | 0.03 µg/mL (≈ 0.0419 µM) | 0.5 µg/mL (≈ 0.699 µM) | 0.06 µg/mL (≈ 0.0838 µM) | 0.03 µg/mL (≈ 0.0419 µM) | 0.01 µg/mL (≈ 0.014 µM) | 16 µg/mL (≈ 22.4 µM) | 0.06 µg/mL (≈ 0.0838 µM) | 1 µg/mL (≈ 1.4 µM) | 16 µg/mL (≈ 22.4 µM) | 0.06 µg/mL (≈ 0.0838 µM) | 0.25 µg/mL (≈ 0.349 µM) | 16 µg/mL (≈ 22.4 µM) | 0.8 mg/kg
3 | CO/N=C(\C(=O)N[C@@H]1C(=O)N2C(C(=O)O)=C(COC(N)=O)CS[C@H]12)c1ccco1 [Cefuroxim, reference compound] | 8 µg/mL (≈ 18.9 µM) | 4 µg/mL (≈ 9.43 µM) | 2 µg/mL (≈ 4.71 µM) | 4 µg/mL (≈ 9.43 µM) | 0.5 µg/mL (≈ 1.18 µM) | > 128 µg/mL | 8 µg/mL (≈ 18.9 µM) | 1 µg/mL (≈ 2.36 µM) | > 128 µg/mL | 2 µg/mL (≈ 4.71 µM) | 32 µg/mL (≈ 75.4 µM) | – | > 100 mg/kg
4 | CO[C@@]1(NC(=O)C(NC(=O)Nc2cnc(NCc3ccc(S(N)(=O)=O)s3)nc2O)c2ccccc2)C(=O)N2C(C(=O)O)=C(CSc3nnnn3C)CS[C@@H]21 (some centres unmarked) [Compound 11] | 0.12 µg/mL (≈ 0.147 µM) | 0.25 µg/mL (≈ 0.305 µM) | 0.25 µg/mL (≈ 0.305 µM) | 0.25 µg/mL (≈ 0.305 µM) | 0.06 µg/mL (≈ 0.0733 µM) | 8 µg/mL (≈ 9.77 µM) | 0.25 µg/mL (≈ 0.305 µM) | 1 µg/mL (≈ 1.22 µM) | 16 µg/mL (≈ 19.5 µM) | 0.5 µg/mL (≈ 0.611 µM) | 0.5 µg/mL (≈ 0.611 µM) | 0.25 µg/mL (≈ 0.305 µM) | ~5 mg/kg
5 | CO[C@@]1(NC(=O)C(NC(=O)Nc2cnc(NCc3ccco3)nc2O)c2ccccc2)C(=O)N2C(C(=O)O)=C(CSc3nnnn3C)CS[C@@H]21 (some centres unmarked) [Compound 14] | 0.12 µg/mL (≈ 0.166 µM) | 0.25 µg/mL (≈ 0.345 µM) | 0.25 µg/mL (≈ 0.345 µM) | 0.25 µg/mL (≈ 0.345 µM) | 0.12 µg/mL (≈ 0.166 µM) | 8 µg/mL (≈ 11.1 µM) | 0.25 µg/mL (≈ 0.345 µM) | 0.5 µg/mL (≈ 0.691 µM) | 8 µg/mL (≈ 11.1 µM) | 1 µg/mL (≈ 1.38 µM) | 1 µg/mL (≈ 1.38 µM) | 0.25 µg/mL (≈ 0.345 µM) | 2.5 to 5 mg/kg
6 | Cn1nnnc1SCC1=C(C(=O)O)N2C(=O)[C@@H](NC(=O)C(NC(=O)Nc3cnc(NCc4ccc(S(N)(=O)=O)s4)nc3O)c3csc(N)n3)[C@H]2SC1 (some centres unmarked) [Compound 4] | 0.01 µg/mL (≈ 0.0123 µM) | 0.25 µg/mL (≈ 0.308 µM) | 0.03 µg/mL (≈ 0.037 µM) | 0.03 µg/mL (≈ 0.037 µM) | 0.01 µg/mL (≈ 0.0123 µM) | 8 µg/mL (≈ 9.87 µM) | 0.06 µg/mL (≈ 0.074 µM) | 1 µg/mL (≈ 1.23 µM) | 16 µg/mL (≈ 19.7 µM) | 0.01 µg/mL (≈ 0.0123 µM) | 0.06 µg/mL (≈ 0.074 µM) | 8 µg/mL (≈ 9.87 µM) | < 0.5 mg/kg
